Source: patent publication US12564595B2, “Prophylactic and therapeutic pharmaceutical agent for HIV infectious diseases characterized by comprising combination of integrase inhibitor and anti-HIV agent” (Shionogi & Co., Ltd., priority 2019, dated 2026)

Experiments:
[1] = test system: HIV; assay: microbe, parasite or virus in culture; type: cell-based; details: Human immunodeficiency virus 1, MT4, 96 h, read-out: EC50 (50% HIV inhibition concentration), MT-4 cells, HIV, cultured four days, MTT; compounds of formula (I) of (A)
Method in brief: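 MT-4 cells infected with HIV in the presence of serially diluted test samples and cultured four days at CO2 incubator conditions. Cell viability measured by MTT reduction (1 h), solubilised formazan read at 560/690 nm.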

[2] = test system: HIV mutant strain 1 (E138K/G140S/Q148H/N155H); assay: Test Example 2: resistance evaluation test (HeLa-CD4 reporter), mutant strain 1; type: cell-based; details: FC=EC50 of mutant strain/EC50 of wild strain; HeLa-CD4 cells
Method in brief: (§1)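 HeLa-CD4 reporter cells were infected with wild-type or mutant HIV in the presence of serially diluted compound and cultured 3 days. Cell lysates were read by chemiluminescent reporter assay after about 1 h at room temperature. Fold change was calculated as mutant EC50 divided by wild-type EC50.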

[3] = test system: HIV mutant strain 2 (E92Q/E138T/G140S/Q148H); assay: Test Example 2: resistance evaluation test (HeLa-CD4 reporter), mutant strain 2; type: cell-based; details: FC=EC50 of mutant strain/EC50 of wild strain; HeLa-CD4 cells
Method in brief: as §1

[4] = test system: HIV; assay: Test Example 3: test for confirmation of combined use effect; type: cell-based; parameters: key to D value (dosewise additivity value): <-0.1 synergy, -0.1 to 0.1 additive, >0.1 antagonism
Source text: The two compounds in respect of which the effect of combined use was desired to be examined were mixed in various ratios, and the anti-HIV activity (50% HIV inhibiting concentration) for each combination was found by the method of test example 1. […] A brief description of the method of calculating the D value is given below.
The D value that is found by evaluating the anti-HIV activity of respective combinations of M concentrations of compound X1 and N concentrations of compound X2 is calculated by the following mathematical expression 1.
The effect of combined use was evaluated in terms of the D value in accordance with the following criteria • −0.5 to −0.2: strong synergetic effect • −0.2 to −0.1: weak synergetic effect • […]: additive synergetic effect • 0.1 to 0.2: weak antagonism • 0.2 to 0.5: strong antagonism

[5] = Test Example 8: metabolic stability test; type: in vitro ADME, human; details: pooled human liver microsomes, 30 min at 37° C., NADPH, compound concentration 0.5 μmol/L
Method in brief: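 Pooled human liver microsomes (0.5 mg protein/mL, Tris-HCl pH 7.4) incubated with compound and 1 mmol/L NADPH for 0 or 30 min at 37° C. After methanol/acetonitrile quench, remaining parent was quantified by LC/MS/MS or SPE/MS and expressed as % of the 0 min amount.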

[6] = target: T1, voltage-gated sodium channel (Nav 1.5 channel) (Homo sapiens, UniProt Q14524); assay: Test Example 14: Nav test (patch clamp, HEK cells); type: cell-based; details: HEK cells expressing Nav 1.5 channel, whole cell patch clamp
T1 construct: expressed in transfected cells; host or cells: HEK cells
Procedure: Using a fully automatic patch clamp system (QPatch: Sophion Bioscience A/S), by the whole cell patch clamp method, the cells were maintained at a membrane potential of −100 mV and the induced INa when a −10 mV depolarization stimulus was applied for 20 msec was recorded. […] From the INa obtained, using analysis software (QPatch: Sophion Bioscience A/S), the absolute value of the maximum peak current was measured, with reference to the current value at the maintained membrane potential.

[7] = test system: HIV; assay: Test Example 16: anti-HIV activity in the presence of human serum protein (MT-4 cells); type: cell-based; details: 100% extrapolation value, PS=4×(EC50 with 25% human serum protein/EC50 with no human serum protein)
Procedure: A stage dilution series of the test samples was created on a 96-well microplate (50 μL/well).
Aliquots of human serum protein solution (human serum protein concentration 50%) were dispensed in the amount of 100 μL/well to a 96-well microplate containing the test sample. This was then left to stand for 1 h at room temperature. Culture medium in the amount of 100 μL/well in each case was dispensed to a serum-free plate for control purposes. Aliquots of MT-4 cells in the amount of 3.0×10^5/well and HIV virus liquid in the amount of 3 μL/well were mixed for the necessary number of wells and reacted for 1 h at 37° C. After the reaction, the cell suspension was centrifuged and the supernatant discarded; aliquots of infected cells were distributed to culture medium in the amount of 50 μL/well and were dispensed in the amount of 50 μL/well in each case into the wells of a 96-well microplate containing test samples and human serum protein (human serum protein concentration: 25%). Mixing was performed using a plate mixer and culturing was performed for four days with a CO2 incubator. […] MTT(3-(4, 5-dimethylthiazol-2-yl)-2, 5-diphenyltetrazolium bromide) liquid in the amount of 30 μL was dispensed to each of the wells. The reaction was performed for 1 h in a CO2 incubator. 150 μL supernatant was removed to avoid aspirating cells from the wells. 150 μL of cell solution was added and thorough mixing was performed, using a plate mixer, until all the cells were dissolved. The optical absorbance on the mixed plate was measured at two wavelengths, namely, 560 nm/690 nm, using a microplate reader.
Next, the potency shift (PS) was calculated, using the following formula. The PS is the value of the human serum protein concentration, extrapolated to 100%.

[8] = test system: HIV mutant strain 3 (E92Q/E138K/G140S/Q148H); assay: Test Example 2: resistance evaluation test (HeLa-CD4 reporter), mutant strain 3; type: cell-based; details: FC=EC50 of mutant strain/EC50 of wild strain; HeLa-CD4 cells
Procedure: (§2) A serial dilution series of test samples in 96-well microplates was prepared (50 […]).
(§3) 2.5×10^4/mL of HeLa-CD4 cell suspension was dispensed into each of the microplates containing test sample, in the amount of 100 μL/well, and HIV virus liquid (wild strain and mutant strain) was then dispensed in an amount of 50 μL/well. Mixing was performed using a plate mixer and culturing was performed for three days in a CO2 incubator. After removing the cultured supernatant of each well by suction, 100 μL of the cell solution buffer in the reporter measurement kit was dispensed thereto, and freezing was conducted in a refrigerator (−80° C.). The plates frozen in the refrigerator were defrosted at room temperature, then mixed using a plate mixer and centrifuged for 5 min at 1,200 rpm. The supernatant of each well was divided to 96-well microplates (BLACK) in the amount of 20 μL in each case. The chemiluminescence reagent in the reporter assay kit was dispensed in the amount of 100 μL in each case, and, after reacting for about 1 h at room temperature, the amount of luminescence was measured using a MicroBeta TRILUX.
(§4) The degree of resistance (fold change (FC)) of each mutant strain was also calculated using the following formula. FC=EC50 of mutant strain/EC50 of wild strain (Results)

[9] = test system: HIV mutant strain 4 (T97A/E138T/G140S/Q148H); assay: Test Example 2: resistance evaluation test (HeLa-CD4 reporter), mutant strain 4; type: cell-based; details: FC=EC50 of mutant strain/EC50 of wild strain; HeLa-CD4 cells
Procedure: as §2, §3, §4

[10] = combination with compound (B) Compound C (CAI)
[11] = combination with compound (B) Darunavin (PI)
[12] = combination with compound (B) Darunavir (PI)
[13] = combination with compound (B) GS-6207 (CAI)
[14] = combination with compound (B) GSK2838232 (maturation inhibitor)
[15] = combination with compound (B) I′-189 (INLAI)
[16] = combination with compound (B) Lilpiperine (polymerase inhibitor)
[17] = combination with compound (B) Ramipzin (3TC) (polymerase inhibitor)
[18] = combination with compound (B) Rilpivirine (polymerase inhibitor)
[19] = combination with compound (B) VM-1500 (polymerase inhibitor)

T1 sequence (Q14524 whole entry): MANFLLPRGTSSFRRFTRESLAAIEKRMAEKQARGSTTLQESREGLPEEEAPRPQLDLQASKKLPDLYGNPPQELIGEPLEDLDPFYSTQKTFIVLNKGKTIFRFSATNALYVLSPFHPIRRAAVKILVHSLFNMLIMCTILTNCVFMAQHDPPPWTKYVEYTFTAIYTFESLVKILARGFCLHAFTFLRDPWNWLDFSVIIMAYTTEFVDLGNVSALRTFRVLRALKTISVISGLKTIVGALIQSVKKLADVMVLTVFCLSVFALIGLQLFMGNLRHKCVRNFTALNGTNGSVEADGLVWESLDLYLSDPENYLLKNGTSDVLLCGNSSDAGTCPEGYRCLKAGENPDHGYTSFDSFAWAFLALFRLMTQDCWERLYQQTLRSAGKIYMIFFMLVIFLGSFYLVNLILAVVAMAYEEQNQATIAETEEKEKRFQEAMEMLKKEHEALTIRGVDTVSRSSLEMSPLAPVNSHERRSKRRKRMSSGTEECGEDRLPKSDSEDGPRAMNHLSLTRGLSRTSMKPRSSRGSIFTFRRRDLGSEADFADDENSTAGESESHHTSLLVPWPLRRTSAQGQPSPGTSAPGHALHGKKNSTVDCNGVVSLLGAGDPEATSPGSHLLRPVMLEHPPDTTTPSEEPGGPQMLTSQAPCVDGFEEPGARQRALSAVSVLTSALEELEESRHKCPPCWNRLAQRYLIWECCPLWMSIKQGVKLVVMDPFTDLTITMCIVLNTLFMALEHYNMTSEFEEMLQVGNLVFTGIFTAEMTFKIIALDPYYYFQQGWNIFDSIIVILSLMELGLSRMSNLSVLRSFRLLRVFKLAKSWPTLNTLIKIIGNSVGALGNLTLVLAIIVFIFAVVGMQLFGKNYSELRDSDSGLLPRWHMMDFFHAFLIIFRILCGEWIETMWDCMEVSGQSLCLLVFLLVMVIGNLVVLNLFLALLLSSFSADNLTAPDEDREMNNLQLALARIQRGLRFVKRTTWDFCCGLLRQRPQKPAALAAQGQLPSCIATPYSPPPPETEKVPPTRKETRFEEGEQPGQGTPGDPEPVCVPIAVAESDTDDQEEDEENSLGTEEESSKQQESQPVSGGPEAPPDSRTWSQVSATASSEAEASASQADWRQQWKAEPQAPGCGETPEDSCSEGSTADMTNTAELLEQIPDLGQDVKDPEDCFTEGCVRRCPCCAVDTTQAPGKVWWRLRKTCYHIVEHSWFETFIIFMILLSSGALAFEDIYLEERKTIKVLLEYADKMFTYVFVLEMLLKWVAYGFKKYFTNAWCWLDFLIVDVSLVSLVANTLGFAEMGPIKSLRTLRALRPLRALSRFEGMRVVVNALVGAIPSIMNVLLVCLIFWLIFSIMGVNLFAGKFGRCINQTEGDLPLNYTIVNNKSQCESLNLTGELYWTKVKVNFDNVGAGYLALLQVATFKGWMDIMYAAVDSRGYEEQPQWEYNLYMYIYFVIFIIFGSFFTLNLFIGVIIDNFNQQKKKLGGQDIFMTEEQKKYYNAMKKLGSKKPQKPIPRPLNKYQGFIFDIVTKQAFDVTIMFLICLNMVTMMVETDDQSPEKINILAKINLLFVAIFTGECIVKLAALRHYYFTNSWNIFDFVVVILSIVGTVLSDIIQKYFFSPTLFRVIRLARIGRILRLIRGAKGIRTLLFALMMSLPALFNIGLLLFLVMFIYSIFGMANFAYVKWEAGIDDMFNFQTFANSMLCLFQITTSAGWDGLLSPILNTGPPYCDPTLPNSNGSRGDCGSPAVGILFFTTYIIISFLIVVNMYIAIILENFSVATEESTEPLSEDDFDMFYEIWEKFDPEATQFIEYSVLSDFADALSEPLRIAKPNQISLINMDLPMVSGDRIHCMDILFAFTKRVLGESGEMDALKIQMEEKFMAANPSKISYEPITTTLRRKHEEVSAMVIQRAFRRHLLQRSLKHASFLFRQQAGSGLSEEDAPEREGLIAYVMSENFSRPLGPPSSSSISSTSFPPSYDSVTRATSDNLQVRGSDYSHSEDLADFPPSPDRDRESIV

Compound | FC in respect of mutant strain 1 (E138K/G140S/Q148H/N155H) [2] | FC in respect of mutant strain 2 (E92Q/E138T/G140S/Q148H) [3] | D value (dosewise additivity value) [4, 10] | effect of combined use [4, 10] | D value (dosewise additivity value) [4, 11] | effect of combined use [4, 12] | D value (dosewise additivity value) [4, 13] | effect of combined use [4, 13] | D value (dosewise additivity value) [4, 14] | effect of combined use [4, 14] | D value (dosewise additivity value) [4, 15] | effect of combined use [4, 15] | effect of combined use [4, 16] | D value (dosewise additivity value) [4, 17] | effect of combined use [4, 17] | D value (dosewise additivity value) [4, 18] | D value (dosewise additivity value) [4, 19] | effect of combined use [4, 19] | Remaining percentage [5] | ratio of maximum peak current (INa) on application of compound to that on application of medium [6] | other results
CCN1C(=O)c2c(O)c(=O)c(-c3nnc(Cc4c(F)cc(F)cc4F)s3)cn2N2CCCC[C@@H]12 [Compound I-007] | 3.8 | 6.9 | 0.059 | Additive (−0.1 to −0.1: additive synergetic effect) | −0.096 | Additive (−0.1 to −0.1: additive synergetic effect) | −0.040 | Additive (−0.1 to −0.1: additive synergetic effect) | 0.017 | Additive (−0.1 to −0.1: additive synergetic effect) | 0.053 | Additive (−0.1 to −0.1: additive synergetic effect) | Additive (−0.1 to −0.1: additive synergetic effect) | −0.231 | Strong synergy (−0.5 to −0.2: strong synergetic effect) | −0.054 | −0.097 | Additive (−0.1 to −0.1: additive synergetic effect) | 97.7% | 103% | EC50 [1]: 1.6 nM; potency shift (PS) in the presence of human serum protein [7]: 116
CN1C(=O)c2c(O)c(=O)c(C(=O)NCc3ccc(F)cc3F)cn2N2CCCC[C@@H]12 [Compound I-032] | 51 | 18 |  |  |  |  |  |  |  |  |  |  |  |  |  |  |  |  | 103% | 92.1% | FC in respect of mutant strain 3 (E92Q/E138K/G140S/Q148H) [8]: Compound I-032: 7.7; FC in respect of mutant strain 4 (T97A/E138T/G140S/Q148H) [9]: compound I-032: 10
COC[C@@H]1CC[C@H]2N(C)C(=O)c3c(O)c(=O)c(C(=O)NCc4cccc(Cl)c4F)cn3N12 [II-026] | 10 | 6.9 | 0.043 | Additive (−0.1 to −0.1: additive synergetic effect) | −0.137 | Weak synergy (−0.2 to −0.1: weak synergetic effect) | −0.043 | Additive (−0.1 to −0.1: additive synergetic effect) | −0.061 | Additive (−0.1 to −0.1: additive synergetic effect) | 0.056 | Additive (−0.1 to −0.1: additive synergetic effect) | Additive (−0.1 to −0.1: additive synergetic effect) | −0.232 | Strong synergy (−0.5 to −0.2: strong synergetic effect) | −0.077 | −0.155 | Weak synergy (−0.2 to −0.1: weak synergetic effect) | 86% | 79% | potency shift (PS) in the presence of human serum protein [7]: 364
CCN1C(=O)c2c(O)c(=O)c(-c3nnc(Cc4ccc(F)cc4F)s3)cn2N2C[C@@H](C)C[C@@H]12 [II-109] | 4.1 | 2.5 | 0.071 | Additive (−0.1 to −0.1: additive synergetic effect) | −0.143 | Weak synergy (−0.2 to −0.1: weak synergetic effect) | −0.059 | Additive (−0.1 to −0.1: additive synergetic effect) | −0.054 | Additive (−0.1 to −0.1: additive synergetic effect) | 0.056 | Additive (−0.1 to −0.1: additive synergetic effect) | Additive (−0.1 to −0.1: additive synergetic effect) | −0.145 | Weak synergy (−0.2 to −0.1: weak synergetic effect) | −0.096 | −0.094 | Additive (−0.1 to −0.1: additive synergetic effect) | 98.3% | 93.3% | EC50 [1]: 1.2 nM; potency shift (PS) in the presence of human serum protein [7]: 56
